Experimental data: patent publication US4073918A, “Phenoxyalkylcarboxylic acid amides of substituted thiazolidinecarboxylic acids and their utilization in medicaments” (Ludwig Merckle KG, priority 1974, dated 1978)

How the values were obtained:
[1] = in vivo; cited from earlier work
[2] = system: galactosamine-hepatitis-model; conditions: Arzneimittel-Forschung 23, 56, 1973, cited from earlier work
[3] = system: mouse; test: Pharmacological screening, abdominal tone in the mouse; format: in vivo; conditions: 100 mg/kg intraperitoneal
[4] = system: hypercholesteremic rat; test: Hypercholesteremic test (serum cholesterol and triglycerides); format: in vivo; conditions: for Serum Cholesterol / Serum Triglycerides: hypercholesteremic rat (2% cholesterol, 1% cholic acid diet); for Serum Cholesterol, Lowering % / Serum Triglycerides, Lowering %: hypercholesteremic rat, vs control
Description: (§1) In contrast therewith, the inventive compounds having the general formula (I) show based on the normal lipemic as well as the hypercholesteremic rat models, a distinct anti-lipemic and, in particular anti-cholesteremic effect. […] This activity loss of clofibrate on the hyperlipemic demands is also found a number of times in the literature. The antilipemic activity of the inventive compounds, as well as that of clofibrate as the reference substance, was determined on a normal lipemic CFY-rat during an examination time period of 14 days. During this time, the animals received a normal laboratory diet. (Spratt's No. 1).
(§2) After a 4-day acclimatization period the animals orally received the test compound as a suspension in 1% tragacanth-solution, or the vehicle alone (control group). The control-group consisted of 20 animals, while the test groups contained 10 animals. 24 hours after the last administration, blood samples were taken for determining the serum triglycerides and serum cholesterol level.
The hypercholesteremic test was carried out on the same animals and under the same examining conditions, as was carried out in the normal lipemic test. The animals received a normal laboratory diet (Spratt's No. 2), having added thereto 2% cholesterol and 1% cholic acid.

[5] = Pharmacological screening for 51 pharmacological parameters; format: in vivo
[6] = system: normal lipemic CFY-rat; test: Normolipemic test (serum cholesterol and triglycerides); format: in vivo; conditions: 14 days; for Serum Cholesterol / Serum Triglycerides: 24 h after last administration; for Serum Triglycerides, Lowering % / Serum Cholesterol, Lowering %: vs control
Description: as §1, §2

[7] = Acute oral toxicity (LD50, Litchfield and Wilcoxon); format: in vivo; conditions: in vivo, rat, suspension in 0.5% aqueous Tween 80, observation 14 days
Description: (§3) The acute oral toxicity of the inventive compounds of Examples 18 and 23 was tested on, respectively, five male and female laboratory rats each having a weight of 200 ± 20g. The compounds tested were prepared as suspension in 0.5 %-aqueous Tween 80-solution. The observation time period was 14 days. The determination of the LD50 -values was carried out pursuant to the methods of Litchfield and Wilcoxon.

[8] = system: laboratory rats; test: as above; format: in vivo; conditions: rat, 14 days, Litchfield and Wilcoxon
Description: as §3

[9] = system: laboratory rats; conditions: Literature reference; 20160 min; cited from earlier work

| Structure (SMILES) | Serum Cholesterol ([4]; 100 mg/kg oral) [mg %] | Serum Triglycerides ([4]; 100 mg/kg oral) [mg %] | Serum Cholesterol ([4]; 300 mg/kg oral) [mg %] | Serum Triglycerides ([4]; 300 mg/kg oral) [mg %] | Serum Cholesterol, Lowering % ([4]; 100 mg/kg oral) [%] | Serum Cholesterol, Lowering % ([4]; 300 mg/kg oral) [%] | side effects in pharmacological screening [5] | Serum Cholesterol ([6]; 100 mg/kg oral) [mg %] | Serum Triglycerides ([6]; 100 mg/kg oral) [mg %] | Serum Triglycerides, Lowering % ([6]; 100 mg/kg oral) [%] | Serum Cholesterol ([6]; 300 mg/kg oral) [mg %] | Serum Triglycerides ([6]; 300 mg/kg oral) [mg %] | Serum Triglycerides, Lowering % ([6]; 300 mg/kg oral) [%] | Serum Cholesterol, Lowering % ([6]; 300 mg/kg oral) [%] | other results |
| --- | --- | --- | --- | --- | --- | --- | --- | --- | --- | --- | --- | --- | --- | --- | --- |
| CC(C)(S)[C@@H](N)C(=O)O [D-penicillamine] |  |  |  |  |  |  |  |  |  |  |  |  |  |  | known side effects [1]: allergic reactions, leukopenia or gastrointestinal disturbances; influence on lipid material exchange (in words) [2]: satisfactory influence on lipid material exchange; liver protective effect; release of SH-groups, stimulation of nucleic acids and protein synthesis (in words) ([2]; galactosamine-hepatitis-model): These properties are also shown by D-penicillamine |
| CC(Oc1ccc(Cl)cc1)C(=O)N1C(C(=O)O)C(C)(C)SC1(C)C (centres unmarked) [Example 18, 2,2,5,5-tetramethyl-3-2-(p-chlorophenoxy)propionyl!-thiazolidine-4-carboxylic acid] | 412.9 | 71.4 | 470.3 | 72.4 | 30.2 | 20.5 | no special side effects were seen | 95.8 | 68.7 | 27.2 | 95.3 | 82.5 | 12.6 |  | abdominal tone [3]: a small reduction of the abdominal tone was observed; LD50 at 336 h [7]: > 5000 mg/kg |
| CC1(C)SC2(CCCCC2)N(C(=O)COc2ccc(Cl)cc2)C1C(=O)O (centres unmarked) [Example 23] |  |  |  |  |  |  |  |  |  |  |  |  |  |  | Effective limits (of LD50) [8]: 3680 to 5130 mg/kg; LD50 at 336 h [7]: 4350 mg/kg |
| CC(C)(Oc1ccc(Cl)cc1)C(=O)NCC1NC(C(=O)O)C(C)(C)S1 (centres unmarked) [Example 17] | 353.8 | 85.0 | 296.1 | 96.4 |  | 7.2 | no special side effects were seen | 81.8 | 77.3 | 11.2 | 81.5 | 91.2 |  | 13.1 | Serum Triglycerides, Lowering % ([4]; 100 mg/kg oral): 1.2%; Serum Cholesterol, Lowering % ([6]; 100 mg/kg oral): 12.8% |
| CCOC(=O)C(C)(C)Oc1ccc(Cl)cc1 [Clofibrate, 2-(p-chlorophenoxy)-2-methylpropionic acid ethyl ester, reference compound] |  |  | 347.9 | 75.6 |  | 3.0 |  |  |  |  | 56.1 | 66.5 | 46.3 | 27.0 | activity on the hypercholesteremic models (in words) ([4]; hypercholesteremic models): shows no more activity; Serum Triglycerides, Lowering % ([4]; 300 mg/kg oral): 12.5%; LD50 [9]: ~1200 mg/kg |
| CC1(C)SC(C)(C)N(C(=O)COc2ccc(Cl)cc2)C1C(=O)O (centres unmarked) [Example 20, 2,2,5,5-tetramethyl-3-(p-chlorophenoxyacetyl)-thiazolidine-4-carboxylic acid] | 503.9 | 88.1 | 479.6 | 92.2 | 14.8 | 18.9 |  | 87.8 | 67.6 | 28.4 | 73.0 | 66.0 | 30.1 | 15.3 |  |
| CC(C)(Oc1ccc(Cl)cc1)C(=O)N1C(C(=O)O)C(C)(C)SC1(C)C (centres unmarked) [Example 19] | 549.1 | 65.9 | 595.6 | 66.0 | 7.1 |  |  | 93.1 | 75.2 | 20.3 | 82.0 | 72.7 | 23.0 | 4.9 |  |
| CC(C)(Oc1ccc(Cl)cc1)C(=O)NCC1SC(C)(C)C(C(=O)O)N1C(=O)COc1ccc(Cl)cc1 (centres unmarked) [Example 21, 2-2-(p-chlorophenoxy)-2-methyl-propionylamidomethyl!-5,5-dimethyl-3-(p-chlorophenoxyacetyl)-thilazolidine-4-carboxylic acid] | 501.2 | 51.0 | 465.1 | 41.3 |  |  | no special side effects were seen | 89.4 | 59.1 | 11.4 | 90.8 | 72.4 |  | 5.9 | Serum Triglycerides, Lowering % ([4]; 100 mg/kg oral): 5.9%; Serum Triglycerides, Lowering % ([4]; 300 mg/kg oral): 23.9%; Serum Cholesterol, Lowering % ([6]; 100 mg/kg oral): 7.3% |
